No end group written: not given here.
Tests used:
[1] = tested on: control T lymphocytes (patients suffering from hemochromatosis); assay: Cell survival of control T lymphocytes, annexin/propidium iodide flow cytometry; assay type: cell-based, human
Description: (§1) FIG. 7: Activity of the A1WT peptide on cells of lymphocytic, lymphoid, gastric, colonic or renal origin The cells are prepared and placed in culture (see Materials and Methods) and then incubated for 4 H with the A1WT or A1 YALA peptide. The percentage cell survival corresponds to the percentage of cells labeled neither with annexin nor with propidium iodide, evaluated by flow cytometry. The names of the pathological conditions from which the patients from whom the samples are taken are suffering are indicated under the figure. The control T (L.T.) and B (L.B.) lymphocytes are taken from patients suffering from a disease not related to a lymphocytic pathological condition (hemochromatosis).
The control B lymphocytes and T lymphocytes originate from peripheral blood samples from patients suffering from hemochromatosis, provided by the CTS transfusion center in Brest. The B and T lymphocytes were isolated using the Rosett-Sep kit (Stemcell Technologies) according to the supplier's recommendations.
(§2) The cells were cultured in a culture medium composed either of RPMI 1640 (B lymphocytes) or of DMEM (COS7, HCT116, HGT1, 293, HeLa) containing 10% of FCS (fetal calf serum, 1% of penicillin-streptomycin and 1% of glutamine, Gibco BRL). The cells are distributed in a 24-well plate and cultured at 37° C. in a humid atmosphere under 5% CO2.
(§3) 400 μl of cell suspension (1×10^6 cells/ml) per well were treated for 4 h or 24 h with various concentrations of peptides. The test for activity of the peptides in the presence of emetine (FIG. 6) was carried out by preincubating the cells with 100 μM of emetine for one hour before the addition of peptide.
(§4) After the cells have been washed with PBS, they were analyzed using the Annexin V-FITC IP system according to the supplier's recommendations (Beckman Coulter).

[2] = tested on: cells derived from a human colon cancer (HCT116); assay type: cell-based; settings: 4 h, 40 μM
Description: as §1, §2, §3, §4

[3] = tested on: HGT1 cell line derived from a gastric cancer; assay type: cell-based; settings: 4 h, 40 μM
Description: as §1, §2, §3, §4

[4] = tested on: cells derived from a simian kidney cancer (COS7); assay type: cell-based; settings: 4 h, 40 μM
Description: as §1, §2, §3, §4

[5] = tested on: 293 cells (human embryo kidney cells transformed with adenovirus 5); assay: Cell survival of 293 cells, Syto 13/propidium iodide fluorescence microscopy; assay type: cell-based; settings: one hour incubation, various concentrations; FIG. 10
Description: The cells cultured in glass-bottomed multiwell plates are incubated for one hour with the A1WT or A1 YALA peptide at the concentrations indicated on the figure. The percentage cell survival is obtained by calculating the ratio between the cells stained with Syto 13 and those stained with propidium iodide (see Materials and Methods).
The analyses were carried out on a Zeiss Observer Z1 epifluorescence microscope. The cells are cultured in a glass-bottomed multiwell plate, propidium iodide and Syto13 (Invitrogen) are added to the medium at a concentration of 1 mg/ml and 5 μM, respectively. The Syto 13 binds to the DNA in the nuclei of the cells which then emit a green fluorescence. When the membrane permeability is modified during the cell death process, the propidium iodide penetrates the cell and causes the appearance of a red fluorescence when it binds to the DNA of the cell nuclei. The ratio between the number of nuclei emitting a green fluorescence and the number of nuclei emitting a red fluorescence represents the fraction of live cells expressed as percentage cell survival in the figures.

[6] = tested on: acute myeloid leukemia (AML) cells; assay type: cell-based, human; settings: 4 h, 40 μM
Description: as §1, §2
400 μl of cell suspension (1×10^6 cells/ml) per well were treated for 4 h or 24 h with various concentrations of peptides. […]
After the cells have been washed with PBS, they were analyzed using the Annexin V-FITC IP system according to the supplier's recommendations (Beckman Coulter). […]

[7] = tested on: control T lymphocytes (patients suffering from hemochromatosis); assay: Cell survival of control T lymphocytes, annexin/propidium iodide flow cytometry; assay type: cell-based, human; settings: 40 μM, 4 hours; FIG. 9
[8] = tested on: cap-dependent translation (eIF4E-dependent); assay: Effect of the peptides on translation of capped luciferase mRNA in rabbit reticulocyte lysate; assay type: biochemical; settings: 50 μM peptide, compared with DMSO = 100%; FIG. 2
Description: The peptides having the IRS motif and the sequences of 4EBPlike type (A1WT, BPSgWT, and BP2WT) or the mutant sequences of 4EPBlike type (A1YALA, BPSgYALA, BP2YALA) are incubated in rabbit reticulocyte lysate containing capped mRNAs encoding luciferase, an enzyme of which the activity can be easily assayed. The translational activity is directly proportional to the activity of the luciferase produced. The translational activity in the presence of peptide is compared with that obtained during the addition of an equivalent volume of DMSO, considered to be 100%.
The peptides were produced, purified by HPLC (purity>95%), and freeze-dried by Thermofisher Scientific. The peptides were then dissolved at 10 mM in DMSO.
The capped mRNAs encoding Renilla luciferase (Luc R) were produced by the T7 Message Machine Kit system (Ambion) from the pGb-Eg2-410Δ2-hxG-A65 plasmid linearized with EcoRV (Legagneux V, Omilli F, Osborne HB (1995) Substrate-specific regulation of RNA deadenylation in Xenopus embryo and activated egg extracts. RNA 1: 1001-1008).
The Luc R mRNAs were translated for one hour at 30° C. in rabbit reticulocyte lysate (Flexi Rabbit Reticulocyte Lysate System, Promega) in the presence of 50 μM of peptide. The luciferase activity was determined using the Renilla luciferase assay (Promega) on the Tristar LB941 luminometer (Berthold).
A capped mRNA (having a cap at the 5′ end) encoding luciferase, a protein which can be easily assayed by measuring its activity, was translated in the presence of these various peptides in rabbit reticulocyte lysate (FIG. 2). The luciferase activity measured is directly proportional to the amount of luciferase protein produced and therefore to the cap-dependent translational activity. Since the peptides are dissolved in DMSO, it was important to test the effect of DMSO on the translation. […] The translational activity in the presence of peptide was compared with that obtained when an equal volume of DMSO is added, considered to be equal to 100%.

RRKYGRDFLLRFRYIRS [A1 WT IRS, RRKYGRDFLLRFRYIRS]
cell effect LT 40 (survival) ([1]; 40 μM peptide, 4 hours of culture, cells not labeled with annexin or propidium iodide): + (+: survival <25%) | survival rate ([1]; after 4 H of incubation with 40 μM, FIG. 7): 38% | cell survival [2]: 94% | cell survival [3]: more than 88% | cell survival [4]: 90% | effect on cell survival [5]: dose-dependent effect | survival rate [6]: 38% | effect of the peptide on cell mortality, in words (relative to A1 WT IRS) [7]: the survival rate is higher in the control T cells | inhibition of translation (luciferase activity) [8]: more substantially inhibits the translation

— patent US9745357B2, “Peptides used for treating cancers and, in particular, chronic lymphoid leukaemia” (Centre National de la Recherche Scientifique, priority 2009, dated 2017)
